According to the NIST ThermoML archive (doi:10.1016/j.fluid.2014.12.023):
Several values for one entry are separate records, joined by “and”; a condition that tells them apart may be missing. Equal values may be shown once.

Details: Liquid, Transpiration method

Fc1ccccc1Br [1-bromo-2-fluorobenzene]
Details | vapor or sublimation pressure [kPa]
278.5 K | 0.1247
279.4 K | 0.1385
280.6 K | 0.1422
282.3 K | 0.1684
282.5 K | 0.1604
283.4 K | 0.1716
284.5 K | 0.1843
285.5 K | 0.2081
288.7 K | 0.262
291.7 K | 0.3115
294.5 K | 0.3837
297.5 K | 0.4636
300.3 K | 0.5578
303.5 K | 0.6675
306.6 K | 0.8
309.5 K | 0.944
312.6 K | 1.141
315.4 K | 1.338
318.6 K | 1.61
321.4 K | 1.858
324.3 K | 2.174

Fc1cccc(I)c1 [1,3-fluoroiodobenzene]
Details | vapor or sublimation pressure
275.2 K | 0.0326 kPa
280.4 K | 0.0474 kPa
283.4 K | 0.0571 kPa
283.8 K | 0.058 kPa
284.9 K | 0.0625 kPa
286.8 K | 0.0746 kPa
288.2 K | 0.082 kPa
288.7 K | 0.0861 kPa and 0.0802 kPa
290.7 K | 0.0986 kPa
292.6 K | 0.1122 kPa
293.2 K | 0.1154 kPa
293.6 K | 0.1137 kPa
296.7 K | 0.1436 kPa
297.6 K | 0.1513 kPa and 0.1481 kPa
300.6 K | 0.184 kPa
302.5 K | 0.2085 kPa
305.6 K | 0.256 kPa
307.5 K | 0.2849 kPa
307.6 K | 0.2932 kPa and 0.3026 kPa
310.6 K | 0.364 kPa and 0.3464 kPa
312.5 K | 0.4094 kPa and 0.3873 kPa
315.6 K | 0.4642 kPa
315.7 K | 0.4836 kPa
317.6 K | 0.516 kPa
317.7 K | 0.5427 kPa
319.6 K | 0.5968 kPa

Fc1ccc(I)cc1 [1,4-fluoroiodobenzene]
Details | vapor or sublimation pressure
276.5 K | 0.0329 kPa
279.7 K | 0.04219 kPa
283.9 K | 0.05918 kPa and 0.0586 kPa
286.5 K | 0.07144 kPa
289.4 K | 0.08532 kPa and 0.08615 kPa
293.3 K | 0.1163 kPa
298.1 K | 0.1638 kPa
303 K | 0.2198 kPa
308.1 K | 0.3015 kPa
312.9 K | 0.4121 kPa
317.9 K | 0.547 kPa

Fc1cccc(Br)c1 [1-bromo-3-fluorobenzene]
Details | vapor or sublimation pressure [kPa]
280.8 K | 0.2278
283.4 K | 0.2912
283.7 K | 0.2875
284.7 K | 0.3109
286.6 K | 0.3559
287.7 K | 0.3711
288.7 K | 0.403
289.4 K | 0.4245
292.5 K | 0.5168
293.4 K | 0.5476
295.3 K | 0.6202
298.4 K | 0.7441
299.7 K | 0.8106
301.5 K | 0.8784
302.4 K | 0.9483
305.8 K | 1.125
308.5 K | 1.312
311.6 K | 1.541
314.6 K | 1.819
317.6 K | 2.138

Fc1ccccc1I [1,2-fluoroiodobenzene]
Details | vapor or sublimation pressure
282.8 K | 0.0397 kPa
285.7 K | 0.0483 kPa and 0.0493 kPa
288.7 K | 0.0638 kPa
289.5 K | 0.0686 kPa
292.5 K | 0.0843 kPa
296.4 K | 0.1111 kPa
298.4 K | 0.1269 kPa
301.4 K | 0.1633 kPa
303.4 K | 0.1819 kPa
306.4 K | 0.2238 kPa
308.4 K | 0.25 kPa
311.3 K | 0.2939 kPa
313.4 K | 0.3289 kPa
316.4 K | 0.4201 kPa
317.5 K | 0.4348 kPa
318.4 K | 0.4686 kPa
321.4 K | 0.5638 kPa
323.5 K | 0.6216 kPa
326.5 K | 0.7364 kPa
327.5 K | 0.7616 kPa
328.6 K | 0.8217 kPa

Fc1ccc(Br)cc1 [1-bromo-4-fluorobenzene]
Details | vapor or sublimation pressure [kPa]
278.2 K | 0.1662
281.3 K | 0.2043
283.5 K | 0.2384
284.4 K | 0.2446
286.5 K | 0.285
287.3 K | 0.2956
289.4 K | 0.3532
290.2 K | 0.3668
292.4 K | 0.4087
295.4 K | 0.5144
296.1 K | 0.5283
298.3 K | 0.6028
300.1 K | 0.6822
301.4 K | 0.7138
304.4 K | 0.8461
307.6 K | 0.9874
310.5 K | 1.204
313.4 K | 1.41
316.4 K | 1.673

Fc1cccc(Cl)c1 [1-chloro-3-fluorobenzene]
Details | vapor or sublimation pressure [kPa]
275.8 K | 0.4412
280.1 K | 0.5829
283.1 K | 0.7061
286 K | 0.8315
288.9 K | 1.031
292 K | 1.237
295.1 K | 1.491
298.1 K | 1.767
301 K | 2.096
304.1 K | 2.469
307.3 K | 2.963
310.3 K | 3.568
313.3 K | 4.106
316.5 K | 4.927
319.5 K | 5.737

Fc1ccccc1Cl [1-chloro-2-fluorobenzene]
Details | vapor or sublimation pressure
277.5 K | 0.3411 kPa
280.6 K | 0.4191 kPa and 0.4312 kPa
283.5 K | 0.5098 kPa
283.6 K | 0.5041 kPa
286.4 K | 0.6241 kPa
286.6 K | 0.6176 kPa
289.5 K | 0.7705 kPa
289.6 K | 0.7749 kPa
292.4 K | 0.8974 kPa
295.7 K | 1.093 kPa
298.5 K | 1.268 kPa
301.3 K | 1.521 kPa
304.1 K | 1.795 kPa
307.4 K | 2.169 kPa
310.1 K | 2.497 kPa
313.6 K | 3.121 kPa
316.3 K | 3.551 kPa
319.2 K | 4.226 kPa

Fc1ccc(Cl)cc1 [1-chloro-4-fluorobenzene]
Details | vapor or sublimation pressure [kPa]
277.6 K | 0.6008
280.6 K | 0.7421
283.2 K | 0.8729
286.2 K | 1.057
289.3 K | 1.259
292.4 K | 1.527
295.7 K | 1.87
296.9 K | 1.982
299.8 K | 2.405
302.7 K | 2.858
305.7 K | 3.285
308.4 K | 3.855
311.6 K | 4.575
314.3 K | 5.275
317.6 K | 6.059
320.4 K | 7.146
323.5 K | 8.51
